We go through one compound from ChEMBL document CHEMBL5661976 (Cancer Res, 2007).

The assay has as its target Receptor tyrosine-protein kinase erbB-2 (Mus musculus, UniProt P70424). The assay can be described thus: Inhibition of ERBB2 expressed in mouse NIH3T3 cells. It is filed as cell-based.

Chain of Receptor tyrosine-protein kinase erbB-2 (P70424 whole entry): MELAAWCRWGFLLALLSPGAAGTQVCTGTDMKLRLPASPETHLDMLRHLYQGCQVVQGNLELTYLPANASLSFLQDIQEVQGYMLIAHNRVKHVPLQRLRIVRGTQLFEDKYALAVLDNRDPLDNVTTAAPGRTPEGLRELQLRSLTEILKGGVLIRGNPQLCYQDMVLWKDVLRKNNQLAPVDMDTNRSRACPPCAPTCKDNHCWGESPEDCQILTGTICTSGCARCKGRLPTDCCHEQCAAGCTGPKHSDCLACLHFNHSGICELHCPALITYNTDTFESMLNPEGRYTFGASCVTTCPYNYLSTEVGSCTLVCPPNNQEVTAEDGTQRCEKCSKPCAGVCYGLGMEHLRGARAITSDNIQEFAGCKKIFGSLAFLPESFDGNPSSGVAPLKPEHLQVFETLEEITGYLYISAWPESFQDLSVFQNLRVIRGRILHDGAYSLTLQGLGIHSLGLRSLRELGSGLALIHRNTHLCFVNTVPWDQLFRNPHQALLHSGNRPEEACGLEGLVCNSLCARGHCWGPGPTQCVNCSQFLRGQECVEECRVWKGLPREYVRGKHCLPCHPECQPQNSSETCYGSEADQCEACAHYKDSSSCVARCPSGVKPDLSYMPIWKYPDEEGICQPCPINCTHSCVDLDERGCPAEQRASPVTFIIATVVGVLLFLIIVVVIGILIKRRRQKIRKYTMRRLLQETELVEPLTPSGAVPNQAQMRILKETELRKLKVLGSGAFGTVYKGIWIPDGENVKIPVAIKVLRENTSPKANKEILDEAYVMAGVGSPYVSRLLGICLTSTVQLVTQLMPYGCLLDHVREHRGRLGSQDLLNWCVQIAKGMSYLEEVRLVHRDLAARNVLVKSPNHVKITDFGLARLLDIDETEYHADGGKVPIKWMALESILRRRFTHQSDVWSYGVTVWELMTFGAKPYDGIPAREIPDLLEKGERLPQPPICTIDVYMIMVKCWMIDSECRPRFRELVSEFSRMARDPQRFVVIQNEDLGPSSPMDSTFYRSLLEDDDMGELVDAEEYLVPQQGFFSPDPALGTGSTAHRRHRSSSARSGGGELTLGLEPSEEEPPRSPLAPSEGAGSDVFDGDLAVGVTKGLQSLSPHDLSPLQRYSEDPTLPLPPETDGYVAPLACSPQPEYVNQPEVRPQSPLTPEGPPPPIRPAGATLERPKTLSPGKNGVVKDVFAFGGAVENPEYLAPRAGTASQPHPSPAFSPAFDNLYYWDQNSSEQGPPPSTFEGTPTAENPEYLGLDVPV

By IC50 is commonly meant the concentration that inhibits the measured activity by half. Read a low IC50 as inhibition by little substance. Consider `C#Cc1cccc(Nc2ncnc3cc(OCCOC)c(OCCOC)cc23)c1` [ERLOTINIB], for which inhibition was half-maximal at 299 nM (IC50).
